# Test results reported in patent US20170087106A1, “Method for supporting gut health” (priority 2015, published 2017).
# Key:
# Format in all cases: in vivo
# IL-17 = assay: TNBS rat colitis: colonic IL-17 mRNA by real-time PCR; settings: colon, oral daily 7 days, mean ± SEM
# Method: (§1) Female Wistar rats (180-200 g) were randomly assigned to nine groups (n=10). Three groups received treatment with CaPyr (20, 40 and 100 mg/kg); other three received treatment with ethyl pyruvate (20, 40 and 100 mg/kg); and the remaining was treated with sulphasalazine (30 mg/kg). All compounds were dissolved in 1 ml of carboxymethylcellulose (0.2%) in water solution, and administered daily by oral gavage. An untreated TNBS control group and a non-colitic group were included for reference, which received the vehicle used to administer the test compounds. Colonic inflammation was induced in control and treated groups as generally described (see Galvez et al. 2014). Briefly, rats were fasted overnight, anesthetized with halothane and given TNBS dissolved in 0.25 ml of 50% ethanol (v/v) by means of a Teflon cannula inserted 8 cm through the anus. During and after TNBS administration, the rats were kept in a head-down position until they recovered from anaesthesia, and then returned to their cages. Rats from the non-colitic group were administered intracolonically 0.25 ml of phosphate buffered saline instead of TNBS. The treatments were given from the day of the colitis induction until the sacrifice of the rats with an overdose of halothane, seven days later. Animal body weights, occurrence of diarrhoea, and water and food intake were recorded daily throughout all the experiments. Once the animals were sacrificed, the colon was removed aseptically and placed on an ice-cold plate, longitudinally opened and cleaned from their luminal contents with cold saline. Afterwards, it was weighed and its length measured under a constant load (2 g). Each colon was scored for macroscopically visible damage on a 0-10 scale by two observers unaware of the experiment, according to the criteria described before (see Galvez et al. 2014). Colon samples (0.5 cm^2) containing all the layers were taken from a region of the inflamed colon corresponding to the adjacent segment to the gross macroscopic damage and were fixed in 4% buffered formaldehyde for the histological studies. Equivalent colonic segments were also obtained from the non-colitic group. The colon was subsequently minced, aliquoted and kept frozen at −80° C. until biochemical determinations and RNA extraction was performed.
# (§2) Analysis of gene expression in colonic samples by RT-qPCR Total RNA from colonic samples was isolated using Trizol® (Thermo Fisher Scientific Inc., Waltham, Mass. USA) following the manufacturer's protocol. All RNA samples were quantified with the Thermo Scientific NanoDrop™ 2000 Spectrophotometer (Thermo Fisher Scientific Inc., Waltham, Mass. USA) and […] of RNA were reverse transcribed using oligo(dT) primers (Promega, Southampton, UK).
# (§3) Real time quantitative PCR amplification and detection was performed on optical-grade 48 well plates in an Eco™ Real-Time PCR System (Illumina, CA, USA) with 20 ng of cDNA, the KAPA SYBR® FAST qPCR Master Mix (Illumina, CA, USA) and specific primers at their annealing temperature (Ta). To normalize mRNA expression, the expression of the housekeeping gene, glyceraldehyde-3-phosphate dehydrogenase (GAPDH) was measured. The mRNA relative quantitation was calculated using the ΔΔCt method.
# IL-1β [1] = assay: TNBS rat colitis: colonic IL-1β by ELISA; settings: colonic tissue, oral daily 7 days, mean ± SEM
# Method: as §1
# (§4) Myeloperoxidase (MPO) activity was measured according to the technique described previously (Krawiszet al., 1984); the results were expressed as MPO units per gram of wet tissue; one unit of MPO activity was defined as that degrading 1 μmol hydrogen peroxide/min at 25° C. Total glutathione (GSH) content was quantified with the recycling assay described by Anderson (1985), and the results were expressed as nmol/g wet tissue. In order to evaluate tissue IL-1β levels, the colonic samples were homogenized in phosphate buffered saline supplemented with 0.1% sodium dodecyl sulfate (SDS), 0.1% sodium deoxycholate, 1% Triton X-100 and protease and phosphatase inhibitors (aprotinin, leupeptin and phenylmethylsulfonyl fluoride). The cytokine was quantified by enzyme-linked immunoabsorbent assay (R&D Systems Inc., Minneapolis, Minn., USA) and the results were expressed as pg/g wet tissue.
# IL-23 = assay: TNBS rat colitis: colonic IL-23 mRNA by real-time PCR; settings: colon, oral daily 7 days, mean ± SEM
# Method: as §1, §2, §3
# iNOS = assay: TNBS rat colitis: colonic iNOS mRNA by real-time PCR; settings: colon, oral daily 7 days, mean ± SEM
# Method: as §1, §2, §3
# IL-1β [2] = assay: TNBS rat colitis: colonic IL-1β mRNA by real-time PCR; settings: colon, oral daily 7 days, mean ± SEM
# Method: as §1, §2, §3
# ICAM-1 = assay: TNBS rat colitis: colonic ICAM-1 mRNA by real-time PCR; settings: colon, oral daily 7 days, mean ± SEM
# Method: as §1, §2, §3
# IL-12 = assay: TNBS rat colitis: colonic IL-12 mRNA by real-time PCR; settings: colon, oral daily 7 days, mean ± SEM
# Method: as §1, §2, §3
# MCP-1 = assay: TNBS rat colitis: colonic MCP-1 mRNA by real-time PCR; settings: colon, oral daily 7 days, mean ± SEM
# Method: as §1, §2, §3
# MUC-2 = assay: TNBS rat colitis: colonic MUC-2 mRNA by real-time PCR; settings: colon, oral daily 7 days, mean ± SEM
# Method: as §1, §2, §3
# [3] = tested on: TNBS experimental rat colitis; assay: TNBS rat colitis: microscopic (histological) damage score; settings: oral daily 7 days, mean ± SEM
# Method: as §1
# Cross-sections were selected and embedded in paraffin. Full-thickness sections of 5 μm were obtained at different levels and stained with haematoxylin and eosin. The histological damage was evaluated by a pathologist observer, who was blinded to the experimental groups, according to the criteria previously described by Galvez.
# [4] = tested on: TNBS experimental rat colitis; assay: TNBS rat colitis: colonic macroscopic damage score and weight/length ratio; settings: for Damage Score (0-10) / Weight/length: TNBS rat colitis, oral daily 7 days, mean ± SEM; for Weight/length: colon
# Method: as §1
# myeloperoxidase (MPO) = assay: TNBS rat colitis: colonic myeloperoxidase (MPO) activity; settings: colonic tissue, oral daily 7 days, mean ± SEM
# Method: as §1, §4
# glutathione (GSH) = assay: TNBS rat colitis: colonic total glutathione (GSH) content; settings: colonic tissue, oral daily 7 days, mean ± SEM
# Method: as §1, §4
# CINC-1 = assay: TNBS rat colitis: colonic CINC-1 mRNA by real-time PCR; settings: colon, oral daily 7 days, mean ± SEM
# Method: as §1, §2, §3
# IL-6 = assay: TNBS rat colitis: colonic IL-6 mRNA by real-time PCR; settings: colon, oral daily 7 days, mean ± SEM
# Method: as §1, §2, §3
# TFF-3 = assay: TNBS rat colitis: colonic TFF-3 mRNA by real-time PCR; settings: colon, oral daily 7 days, mean ± SEM
# Method: as §1, §2, §3
structure (smiles),measurement,setting,value
"CCOC(=O)C(C)=O [EtPyr, ethyl pyruvate]",IL-17 mRNA expression,IL-17; 20 mg/kg,1.17 ± 0.27 fold increase
same,IL-17 mRNA expression,IL-17; 40 mg/kg,1.74 ± 0.33 fold increase
same,IL-17 mRNA expression,IL-17; 100 mg/kg,2.34 ± 0.30 fold increase
same,IL-1β (ELISA),IL-1β [1]; 20 mg/kg,975.0 ± 90.1 ng/g tissue
same,IL-1β (ELISA),IL-1β [1]; 40 mg/kg,1140.0 ± 150.1 ng/g tissue
same,IL-1β (ELISA),IL-1β [1]; 100 mg/kg,975.0 ± 211.7 ng/g tissue
same,IL-23 mRNA expression,IL-23; 20 mg/kg,1.68 ± 0.39 fold increase
same,IL-23 mRNA expression,IL-23; 40 mg/kg,1.56 ± 0.27 fold increase
same,IL-23 mRNA expression,IL-23; 100 mg/kg,1.80 ± 0.21 fold increase
same,iNOS mRNA expression,iNOS; 20 mg/kg,16.17 ± 2.75 fold increase
same,iNOS mRNA expression,iNOS; 40 mg/kg,12.20 ± 1.53 fold increase
same,iNOS mRNA expression,iNOS; 100 mg/kg,22.88 ± 2.14 fold increase
same,IL-1β mRNA expression,IL-1β [2]; 20 mg/kg,6.90 ± 1.50 fold increase
same,IL-1β mRNA expression,IL-1β [2]; 40 mg/kg,7.20 ± 1.20 fold increase
same,IL-1β mRNA expression,IL-1β [2]; 100 mg/kg,10.21 ± 1.50 fold increase
same,ICAM-1 mRNA expression,ICAM-1; 20 mg/kg,1.39 ± 0.19 fold increase
same,ICAM-1 mRNA expression,ICAM-1; 40 mg/kg,2.27 ± 0.38 fold increase
same,ICAM-1 mRNA expression,ICAM-1; 100 mg/kg,2.39 ± 0.50 fold increase
same,IL-12 mRNA expression,IL-12; 20 mg/kg,1.09 ± 0.13 fold increase
same,IL-12 mRNA expression,IL-12; 40 mg/kg,1.81 ± 0.48 fold increase
same,IL-12 mRNA expression,IL-12; 100 mg/kg,1.62 ± 0.37 fold increase
same,MCP-1 mRNA expression,MCP-1; 20 mg/kg,1.23 ± 0.37 fold increase
same,MCP-1 mRNA expression,MCP-1; 40 mg/kg,1.85 ± 0.29 fold increase
same,MCP-1 mRNA expression,MCP-1; 100 mg/kg,2.21 ± 0.29 fold increase
same,MUC-2 mRNA expression,MUC-2; 20 mg/kg,0.39 ± 0.09 fold increase
same,MUC-2 mRNA expression,MUC-2; 40 mg/kg,0.70 ± 0.08 fold increase
same,MUC-2 mRNA expression,MUC-2; 100 mg/kg,0.50 ± 0.11 fold increase
same,Microscopic Damage Score (0-59),[3]; 20 mg/kg,25 ± 3
same,Microscopic Damage Score (0-59),[3]; 40 mg/kg,17 ± 3
same,Microscopic Damage Score (0-59),[3]; 100 mg/kg,23 ± 3
same,Damage Score (0-10),[4]; 20 mg/kg,6.6 ± 0.6
same,Damage Score (0-10),[4]; 40 mg/kg,6.1 ± 0.4
same,Damage Score (0-10),[4]; 100 mg/kg,6.0 ± 0.5
same,Weight/length,[4]; 20 mg/kg,185.4 ± 31.1 mg/cm
same,Weight/length,[4]; 40 mg/kg,172.0 ± 15.8 mg/cm
same,Weight/length,[4]; 100 mg/kg,186.4 ± 13.2 mg/cm
same,effect in TNBS-induced colitis (in words),"[4]; rats, 20, 40 and 100 mg/kg body weight, 7 days oral treatment",intestinal anti-inflammatory effects
same,MPO,myeloperoxidase (MPO); 20 mg/kg,58.1 ± 11.9 mU/g tissue
same,MPO,myeloperoxidase (MPO); 40 mg/kg,61.5 ± 9.8 mU/g tissue
same,MPO,myeloperoxidase (MPO); 100 mg/kg,54.7 ± 10.8 mU/g tissue
same,GSH,glutathione (GSH); 20 mg/kg,560 ± 74 nmol/g tissue
same,GSH,glutathione (GSH); 40 mg/kg,715 ± 88 nmol/g tissue
same,GSH,glutathione (GSH); 100 mg/kg,870 ± 124 nmol/g tissue
same,CINC-1 mRNA expression,CINC-1; 20 mg/kg,4.40 ± 0.65 fold increase
same,CINC-1 mRNA expression,CINC-1; 40 mg/kg,4.40 ± 0.57 fold increase
same,CINC-1 mRNA expression,CINC-1; 100 mg/kg,4.40 ± 0.90 fold increase
same,IL-6 mRNA expression,IL-6; 20 mg/kg,5.60 ± 1.41 fold increase
same,IL-6 mRNA expression,IL-6; 40 mg/kg,5.60 ± 1.20 fold increase
same,IL-6 mRNA expression,IL-6; 100 mg/kg,6.00 ± 1.01 fold increase
same,TFF-3 mRNA expression,TFF-3; 20 mg/kg,0.59 ± 0.16 fold increase
same,TFF-3 mRNA expression,TFF-3; 40 mg/kg,1.01 ± 0.05 fold increase
same,TFF-3 mRNA expression,TFF-3; 100 mg/kg,0.96 ± 0.11 fold increase
"O=C(O)c1cc(/N=N/c2ccc(S(=O)(=O)Nc3ccccn3)cc2)ccc1O [SAZ, sulphasalazine]",IL-17 mRNA expression,IL-17; 30 mg/kg,2.22 ± 0.54 fold increase
same,IL-1β (ELISA),IL-1β [1]; 30 mg/kg,840.0 ± 120.0 ng/g tissue
same,IL-23 mRNA expression,IL-23; 30 mg/kg,1.26 ± 0.18 fold increase
same,iNOS mRNA expression,iNOS; 30 mg/kg,16.47 ± 2.75 fold increase
same,IL-1β mRNA expression,IL-1β [2]; 30 mg/kg,9.70 ± 0.90 fold increase
same,ICAM-1 mRNA expression,ICAM-1; 30 mg/kg,2.90 ± 0.88 fold increase
same,IL-12 mRNA expression,IL-12; 30 mg/kg,1.59 ± 0.24 fold increase
same,MCP-1 mRNA expression,MCP-1; 30 mg/kg,2.62 ± 0.41 fold increase
same,MUC-2 mRNA expression,MUC-2; 30 mg/kg,0.53 ± 0.14 fold increase
same,Microscopic Damage Score (0-59),[3]; 30 mg/kg,30 ± 5
same,Damage Score (0-10),[4]; 30 mg/kg,6.7 ± 0.4
same,Weight/length,[4]; 30 mg/kg,180.4 ± 16.9 mg/cm
same,MPO,myeloperoxidase (MPO); 30 mg/kg,82.8 ± 8.2 mU/g tissue
same,GSH,glutathione (GSH); 30 mg/kg,900 ± 118 nmol/g tissue
same,CINC-1 mRNA expression,CINC-1; 30 mg/kg,4.89 ± 0.82 fold increase
same,IL-6 mRNA expression,IL-6; 30 mg/kg,4.21 ± 0.80 fold increase
same,TFF-3 mRNA expression,TFF-3; 30 mg/kg,0.91 ± 0.12 fold increase
